Measured values taken from patent publication US20070270418A1, “Inhibitors of P38 and Methods of Using the Same” (priority 2003, published 2007).

biological target: T1, p38α (Homo sapiens, UniProt Q16539); test: p38 MAP Kinase assay, ATF2 phosphorylation (ELISA); format: biochemical; conditions: 40 μM ATP
T1 construct: p38 MAP Kinases are recombinant human full-length proteins with an amino-terminal GST fusion; GST (N); purchased Upstate (Charlottesville, Va.); host or cells: E. coli
Description: Compounds of the invention are screened for the ability to inhibit ATF2 phosphorylation by p38 MAP Kinase in vitro. The ability of compounds to inhibit ATF2 phosphorylation in this in vitro assay is correlated with the inhibition of p38 MAP Kinase and TNFα expression in vivo, and is therefore an indicator of potential in vivo therapeutic activity (Raingeaud, J., et al, J. Biol. Chem., 270: 7420-7426, 1995, Brinkman, M. N., et al, J. Bil. Chem. 274: 30882-30886, 1999 and Fuchs, S. Y. et al, J. Biol. Chem. 275: 12560-12564, 2000).
All kinases and the substrate ATF2 are acquired from Upstate (Charlottesville, Va.). p38 MAP Kinases are recombinant human full-length proteins with an amino-terminal GST fusion, expressed in and purified from E. coli. ATF2 is a GST fusion protein containing amino acids 19-96 of human ATF2 expressed in E. coli. All proteins were aliquoted and stored at −80° C.
p38 MAP Kinase assays are performed using an assay buffer containing 25 mM HEPES, pH 7.5, 10 mM MgCl2, 2 mM DTT, 20 mM β-glycerophosphate, 0.1 mM Na3VO4, 40 μM ATP and 1.25 μM of ATF2, together with 6 ng of p38α protein, 12 ng p38β protein, 1.5 ng p38γ, or 0.4 ng JNK2α2. Compounds are serially diluted in DMSO and 2 μL of test compound at 25× final concentration is used. The vehicle control receives DMSO only. Test compounds are pre-incubated with 20 μl of enzyme in kinase buffer (25 mM HEPES, pH 7.5, 10 mM MgCl2, 2 mM DTT, 20 mM 3-glycerophosphate and 0.1 mM Na3VO4) at room temperature for 15 minutes. […] The reactions are incubated for 30 minutes at 37° C. and terminated by the addition of 18 μl of 200 mM EDTA. An ELISA method is used to measure the phosphorylation of ATF2 at Thr 69. High binding 96-well plates (Corning 3369) are coated with 50 μl of kinase reaction for 1 hour at 37° C. The coated plates are washed with 200 μl washing buffer (25 mM Tris HCl, pH 8.3, 192 mM glycine, 0.1% SDS and 0.05% Tween-20) three times. The plates are then washed three times with SuperBlock in TBS (Pierce, 37535). After blocking, plates are incubated with 50 μl of rabbit anti-phospho-ATF2 antibody (Cell Signaling, 9221 L, 1:500) for 30 minutes at 37° C. Plates are washed three times with washing buffer prior to incubation with 50 μl HRP-conjugated goat anti-rabbit antibody (Cell Signaling, 7074, 1:500) for 30 minutes at 37° C. Plates are then washed three times with washing buffer before incubation with 50 μl of Ultra TMB-ELISA (Pierce, 34028) for 8 minutes at room temperature. Finally, 50 μl of phosphoric acid (1 M) is added to stop reactions and plate absorbance is read at 450 nm on a SpectraMax 250 plate reader.

T1 sequence (Q16539 whole entry, the tested form may be a part): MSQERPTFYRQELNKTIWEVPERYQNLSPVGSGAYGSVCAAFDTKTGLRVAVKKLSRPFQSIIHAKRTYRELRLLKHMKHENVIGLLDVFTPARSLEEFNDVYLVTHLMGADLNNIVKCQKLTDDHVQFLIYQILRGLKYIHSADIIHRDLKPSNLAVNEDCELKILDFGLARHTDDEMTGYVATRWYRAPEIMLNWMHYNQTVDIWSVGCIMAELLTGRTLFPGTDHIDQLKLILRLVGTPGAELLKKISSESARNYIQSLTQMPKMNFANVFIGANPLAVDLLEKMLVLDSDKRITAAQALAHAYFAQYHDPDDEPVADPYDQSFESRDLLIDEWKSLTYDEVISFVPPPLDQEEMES

Clc1ccccc1-c1nc2occn2c1-c1ccnc(N[C@H]2CN3CCC2CC3)n1 [CCCIII] and Cc1ccccc1-c1nc2occn2c1-c1ccnc(N[C@H]2CN3CCC2CC3)n1 [CCCII] are within 1.5-fold of each other in IC50: 12.5 nM for the first, 13.8 nM for the second.

Fc1ccc(-c2nc3occn3c2-c2ccnc(N[C@H]3CN4CCC3CC4)n2)c(F)c1 [CCCIV] and CC(=O)N1CCC(Nc2nccc(-c3c(-c4ccc(F)cc4F)nc4occn34)n2)CC1 [CCCXVII] are within 1.5-fold of each other in IC50: 3.8 nM for the first, 3 nM for the second.

Compared with CC(=O)N1CCC(Nc2nccc(-c3c(-c4ccc(F)cc4Cl)nc4occn34)n2)CC1 [CCCIX], CC(=O)N1CCC(Nc2nccc(-c3c(-c4ccccc4Cl)nc4occn34)n2)CC1 [CCCI] is 1.8-fold higher in IC50: 1.3 nM for the first, 2.3 nM for the second.

Cc1ccccc1-c1nc2occn2c1-c1ccnc(NC2CCNCC2)n1 [CCCVIII] and Clc1ccccc1-c1nc2occn2c1-c1ccnc(NC2CCNCC2)n1 [CCCXIV] are within 1.5-fold of each other in IC50: 10 nM for the first, 14.5 nM for the second.

First: CN(C)CC(C)(C)CNc1nccc(-c2c(-c3cccc(C(F)(F)F)c3)nc3occn23)n1 [CCCVII]
Second: CC(C)(C)OC(=O)N1CCC(Nc2nccc(-c3c(-c4cccc(C(F)(F)F)c4)nc4occn34)n2)CC1 [CCCXI]
The IC50 of the first is 2.4-fold higher: 43.3 nM for the first, 18 nM for the second. The second is the more potent here.

First: CC(=O)N1CCC(Nc2nccc(-c3c(-c4cccc(C(F)(F)F)c4)nc4occn34)n2)CC1 [CCCVI]
Second: CS(=O)(=O)N1CCC(Nc2nccc(-c3c(-c4cccc(C(F)(F)F)c4)nc4occn34)n2)CC1 [CCCXVI]
The IC50 of the first is 5.4-fold higher: 4.9 nM for the first, 0.9 nM for the second.

First: CC(=O)N1CCC(Nc2nccc(-c3c(-c4ccccc4C)nc4occn34)n2)CC1 [CCCV]
Second: Cc1ccccc1-c1nc2occn2c1-c1ccnc(NC2C[C@H]3CC[C@@H](C2)N3C)n1 (stereo partly shown) [CCCXX]
The IC50 of the first is 2.9-fold lower: 4.8 nM for the first, 13.9 nM for the second.

Compared with FC(F)(F)c1cccc(-c2nc3occn3c2-c2ccnc(NC3CCNCC3)n2)c1 [CCCXIII], CN1[C@@H]2CC[C@H]1C[C@@H](Nc1nccc(-c3c(-c4cccc(C(F)(F)F)c4)nc4occn34)n1)C2 [CCCX] is 2.3-fold lower in IC50: 21.2 nM for the first, 9.3 nM for the second.

Compared with CN1[C@@H]2CC[C@H]1C[C@@H](Nc1nccc(-c3c(-c4ccc(F)cc4F)nc4occn34)n1)C2 [CCCXII], CS(=O)(=O)N1CCC(Nc2nccc(-c3c(-c4ccc(F)cc4Cl)nc4occn34)n2)CC1 [CCCXIX] is 8.7-fold lower in IC50: 2.6 nM for the first, 0.3 nM for the second. The second is the more potent here.

Compared with CS(=O)(=O)N1CCC(Nc2nccc(-c3c(-c4ccccc4Cl)nc4occn34)n2)CC1 [CCCXVIII], CS(=O)(=O)c1nccc(-c2c(-c3ccc(F)cc3)nc3occn23)n1 [XI, 6-(4-fluorophenyl)-5-[2-(methylsulfonyl)pyrimidin-4-yl]imidazo[2,1-b][1,3]oxazole] is 4400-fold higher in IC50: 1 nM for the first, 4430 nM for the second. The first is the more potent here.

First: CC(C)[C@@H](CO)Nc1nccc(-c2c(-c3cccc(F)c3)nc3sccn23)n1 [CCIX]
Second: OCC(CO)Nc1nccc(-c2c(-c3ccc(F)cc3)nc3occn23)n1 [XIII]
The IC50 of the first is 2-fold higher: 26 nM for the first, 13 nM for the second.

First: CN1CCCC1CCNc1nccc(-c2c(-c3ccc(F)cc3)nc3occn23)n1 (stereo not shown) [LXI]
Second: CNCCNc1nccc(-c2c(-c3ccc(F)cc3)nc3occn23)n1 [XCII]
The IC50 of the first is 5.1-fold lower: 650 nM for the first, 3330 nM for the second.

Cc1csc(Nc2nccc(-c3c(-c4ccc(F)cc4)nc4occn34)n2)n1 [LXXII] and CSc1nc(Nc2nccc(-c3c(-c4ccc(F)cc4)nc4occn34)n2)n[nH]1 [LXXVII] are within 1.5-fold of each other in IC50: 664 nM for the first, 529 nM for the second.

CN(CCO)c1nccc(-c2c(-c3ccc(F)cc3)nc3occn23)n1 [XCVI] and NC1CCN(c2nccc(-c3c(-c4ccc(F)cc4)nc4occn34)n2)CC1 [XC] are within 1.5-fold of each other in IC50: 969 nM for the first, 866 nM for the second.

system: TNFα release from THP-1 cells; test: TNFα release from LPS-stimulated THP-1 cells; format: cell-based; conditions: Homo sapiens, THP-1, 18 h, LPS 10 μg/ml, 18 hours; read-out: TNFα (THP-1) IC50
Description: Compounds of the invention are screened for the ability to inhibit TNFα and IL-1β release from THP-1 cells stimulated with lipopolysaccharide (LPS) in vitro. The ability of compounds to inhibit TNFα and IL-1β release in this in vitro assay is correlated with the inhibition of p38 activity and TNFα and IL-1β expression in vivo, and is therefore an indicator of potential in vivo therapeutic activity (Lee J. C. et al, Ann. N.Y. Acad. Sci. 696: 149-170, 1993 and Nature, 372: 739-746, 1994).
THP-1 cells from ATCC (TIB202) are maintained at 37° C., 5% CO2 in RPMI 1640 media (MediaTech, Herndon, Va.) containing 4.5 g/L glucose, supplemented with 10% fetal bovine serum, 1% penicillin/streptomycin and 50 μM β-mercaptoethanol.
Test compounds are initially dissolved in RPMI media with 1% DMSO (v/v). Compounds are then serially diluted in RPMI media for all subsequent dilutions. The assay is performed under sterile conditions. THP-1 cells at a culture density of 6-8×10^5 cells/ml are collected and resuspended in the RPMI media at 10^6 cells/ml. 100 μl of resuspended cells are added to each well, which contain 100 μl of a test compound. Test compounds are prepared at twice the final concentration. Final DMSO concentration is no more than 0.5% (v/v). Cells are preincubated with compound for 30 minutes at 37° C., 5% CO2 prior to stimulation with lipopolysaccharide (LPS) (Sigma L-2880, 4 mg/ml stock in PBS). The final LPS concentration in each well is 10 or 30 μg/ml for TNFα and IL-1β release, respectively. Unstimulated control cell suspensions receive PBS vehicle only. Cell mixtures are incubated for 18 or 48 hours for TNFα and IL-1β release, respectively. 150 μl of supernatants are taken and transferred to a fresh plate and stored at −20° C. until further analysis.

First: CC(=O)N1CCC(Nc2nccc(-c3c(-c4ccc(F)cc4Cl)nc4occn34)n2)CC1 [CCCIX]
Second: CC(=O)N1CCC(Nc2nccc(-c3c(-c4ccc(F)cc4F)nc4occn34)n2)CC1 [CCCXVII]
The IC50 of the first is 2.1-fold lower: 6.5 nM for the first, 13.7 nM for the second. The first is the more potent here.

CC(=O)N1CCC(Nc2nccc(-c3c(-c4ccccc4Cl)nc4occn34)n2)CC1 [CCCI] and CC(=O)N1CCC(Nc2nccc(-c3c(-c4ccccc4C)nc4occn34)n2)CC1 [CCCV] are within 1.5-fold of each other in IC50: 38.5 nM for the first, 41 nM for the second.

Cc1ccccc1-c1nc2occn2c1-c1ccnc(NC2CCNCC2)n1 [CCCVIII] and Clc1ccccc1-c1nc2occn2c1-c1ccnc(NC2CCNCC2)n1 [CCCXIV] are within 1.5-fold of each other in IC50: 24 nM for the first, 24.6 nM for the second.

First: CN(C)CC(C)(C)CNc1nccc(-c2c(-c3cccc(C(F)(F)F)c3)nc3occn23)n1 [CCCVII]
Second: CC(C)(C)OC(=O)N1CCC(Nc2nccc(-c3c(-c4cccc(C(F)(F)F)c4)nc4occn34)n2)CC1 [CCCXI]
The IC50 of the first is 4.5-fold lower: 136 nM for the first, 611 nM for the second. The first is the more potent here.

First: CC(=O)N1CCC(Nc2nccc(-c3c(-c4cccc(C(F)(F)F)c4)nc4occn34)n2)CC1 [CCCVI]
Second: CS(=O)(=O)N1CCC(Nc2nccc(-c3c(-c4cccc(C(F)(F)F)c4)nc4occn34)n2)CC1 [CCCXVI]
The IC50 of the first is 2.5-fold higher: 82.6 nM for the first, 33.7 nM for the second. The second is the more potent here.

First: FC(F)(F)c1cccc(-c2nc3occn3c2-c2ccnc(NC3CCNCC3)n2)c1 [CCCXIII]
Second: CN1[C@@H]2CC[C@H]1C[C@@H](Nc1nccc(-c3c(-c4cccc(C(F)(F)F)c4)nc4occn34)n1)C2 [CCCX]
The IC50 of the first is 2.3-fold higher: 111 nM for the first, 47.9 nM for the second. The second is the more potent here.

CS(=O)(=O)N1CCC(Nc2nccc(-c3c(-c4ccc(F)cc4Cl)nc4occn34)n2)CC1 [CCCXIX] and CS(=O)(=O)N1CCC(Nc2nccc(-c3c(-c4ccccc4Cl)nc4occn34)n2)CC1 [CCCXVIII] are within 1.5-fold of each other in IC50: 17.7 nM for the first, 18.2 nM for the second.

Going from CC(C)[C@@H](CO)Nc1nccc(-c2c(-c3cccc(F)c3)nc3sccn23)n1 [CCIX] to COc1cccc(-c2nc3sccn3c2-c2nc(SC)ncc2-c2ccccc2)c1 [CCXXXIV], the IC50 rises from 55.9 nM to greater than 10000 nM. The first is the more potent here.

same assay, conditions: Homo sapiens, THP-1, 18 h, read-out: TNFα (THP-1) IC50 (nM)

First: Clc1ccccc1-c1nc2occn2c1-c1ccnc(N[C@H]2CN3CCC2CC3)n1 [CCCIII]
Second: Cc1ccccc1-c1nc2occn2c1-c1ccnc(N[C@H]2CN3CCC2CC3)n1 [CCCII]
The IC50 of the first is 1.6-fold higher: 9 nM for the first, 5.5 nM for the second. The second is the more potent here.

Fc1ccc(-c2nc3occn3c2-c2ccnc(N[C@H]3CN4CCC3CC4)n2)c(F)c1 [CCCIV] and CN1[C@@H]2CC[C@H]1C[C@@H](Nc1nccc(-c3c(-c4ccc(F)cc4F)nc4occn34)n1)C2 [CCCXII] are within 1.5-fold of each other in IC50: 1.7 nM for the first, 1.2 nM for the second.

For Cc1ccccc1-c1nc2occn2c1-c1ccnc(NC2C[C@H]3CC[C@@H](C2)N3C)n1 (stereo partly shown) [CCCXX], the IC50 was 23.7 nM.
